Test results from ChEMBL document CHEMBL1909046, “DrugMatrix in vitro pharmacology data”.

Key:
[1] = target: Beta-3 adrenergic receptor (Homo sapiens, UniProt P13945); assay: DRUGMATRIX: Adrenergic beta3 radioligand binding (ligand: [125I] Cyanopindolol); assay type: cell membranes, HEK293, Membrane; conditions: hek293; Not Active = under 50% inhibition at 10 µM
Endothelin-1 receptor = target: T1, Endothelin-1 receptor (Homo sapiens, UniProt P25101); assay type: cell membranes, Membrane; conditions: cho-k1; also: in other assays of this panel Not Active means under 50% inhibition at 10 µM
T1 sequence (P25101 whole entry): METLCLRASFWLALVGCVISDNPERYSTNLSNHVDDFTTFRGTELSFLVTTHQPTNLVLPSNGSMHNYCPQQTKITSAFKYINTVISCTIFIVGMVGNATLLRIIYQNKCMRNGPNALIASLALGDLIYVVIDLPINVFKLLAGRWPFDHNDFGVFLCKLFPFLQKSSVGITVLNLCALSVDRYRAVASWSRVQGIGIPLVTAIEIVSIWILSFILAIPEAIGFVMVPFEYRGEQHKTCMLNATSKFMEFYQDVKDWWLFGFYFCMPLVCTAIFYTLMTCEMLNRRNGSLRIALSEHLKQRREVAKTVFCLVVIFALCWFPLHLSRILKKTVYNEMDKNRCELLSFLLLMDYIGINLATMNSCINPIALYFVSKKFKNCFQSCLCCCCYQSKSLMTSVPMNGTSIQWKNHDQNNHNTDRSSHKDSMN

[2] = DRUGMATRIX: GABAA, Flunitrazepam, Central radioligand binding (ligand: [3H] Flunitrazepam); assay type: cell membranes, Rattus norvegicus, Wistar, Brain, Membrane; conditions: Not Active = under 50% inhibition at 10 µM
[3] = target: Kappa-type opioid receptor (Homo sapiens, UniProt P41145); assay: DRUGMATRIX: Opiate kappa (OP2, KOP) radioligand binding (ligand: [3H] Diprenorphine); assay type: cell membranes, HEK293, Membrane; conditions: hek293; Not Active = under 50% inhibition at 10 µM
Neutrophil elastase = target: T2, Neutrophil elastase (Homo sapiens, UniProt P08246); assay type: tissue-based;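 also: inhibition of neutrophil elastase enzyme activity, measured with a p-nitroanilide-linked peptide substrate; in other assays of this panel Not Active means under 50% inhibition at 10 µM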
T2 sequence (P08246 whole entry): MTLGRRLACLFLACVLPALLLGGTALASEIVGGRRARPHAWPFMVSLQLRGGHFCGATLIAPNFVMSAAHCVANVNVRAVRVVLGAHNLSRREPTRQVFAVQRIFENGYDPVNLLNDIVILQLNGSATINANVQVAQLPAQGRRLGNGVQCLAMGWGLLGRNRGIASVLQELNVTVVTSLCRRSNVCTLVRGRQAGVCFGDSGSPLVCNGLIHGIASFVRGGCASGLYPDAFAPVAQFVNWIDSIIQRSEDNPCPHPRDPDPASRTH

Glucocorticoid receptor = target: T3, Glucocorticoid receptor (Homo sapiens, UniProt P04150); conditions: hela s3; also: in other assays of this panel Not Active means under 50% inhibition at 10 µM
T3 sequence (P04150 whole entry): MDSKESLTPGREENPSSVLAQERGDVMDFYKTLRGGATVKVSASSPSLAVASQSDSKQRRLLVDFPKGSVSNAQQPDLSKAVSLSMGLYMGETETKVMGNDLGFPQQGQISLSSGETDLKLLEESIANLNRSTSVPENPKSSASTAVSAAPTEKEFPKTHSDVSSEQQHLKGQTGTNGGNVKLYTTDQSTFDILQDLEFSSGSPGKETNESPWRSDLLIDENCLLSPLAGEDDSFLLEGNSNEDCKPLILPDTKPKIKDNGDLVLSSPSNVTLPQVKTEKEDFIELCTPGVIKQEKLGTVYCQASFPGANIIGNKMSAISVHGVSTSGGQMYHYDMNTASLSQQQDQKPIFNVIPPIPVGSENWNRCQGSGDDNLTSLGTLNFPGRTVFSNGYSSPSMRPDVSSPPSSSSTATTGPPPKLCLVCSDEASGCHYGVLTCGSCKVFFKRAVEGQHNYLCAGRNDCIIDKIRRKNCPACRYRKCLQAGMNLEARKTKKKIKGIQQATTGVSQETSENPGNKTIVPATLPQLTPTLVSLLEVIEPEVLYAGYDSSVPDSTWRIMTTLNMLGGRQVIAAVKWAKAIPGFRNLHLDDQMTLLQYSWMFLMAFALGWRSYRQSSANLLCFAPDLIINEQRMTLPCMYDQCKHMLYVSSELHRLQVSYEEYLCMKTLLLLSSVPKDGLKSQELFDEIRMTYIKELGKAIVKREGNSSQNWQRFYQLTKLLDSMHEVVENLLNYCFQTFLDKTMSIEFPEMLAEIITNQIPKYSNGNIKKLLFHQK

Sequence of Beta-3 adrenergic receptor (P13945 whole entry): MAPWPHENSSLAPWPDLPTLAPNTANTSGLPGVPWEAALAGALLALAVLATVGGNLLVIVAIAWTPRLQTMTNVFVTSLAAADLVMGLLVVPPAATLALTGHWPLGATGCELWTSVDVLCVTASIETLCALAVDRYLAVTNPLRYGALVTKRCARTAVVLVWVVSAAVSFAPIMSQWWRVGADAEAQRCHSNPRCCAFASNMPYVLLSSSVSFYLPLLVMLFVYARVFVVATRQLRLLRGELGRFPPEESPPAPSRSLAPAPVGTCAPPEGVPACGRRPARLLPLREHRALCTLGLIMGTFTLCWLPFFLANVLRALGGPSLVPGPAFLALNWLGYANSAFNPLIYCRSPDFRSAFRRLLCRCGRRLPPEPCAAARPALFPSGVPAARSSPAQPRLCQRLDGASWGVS
Sequence of Kappa-type opioid receptor (P41145 whole entry): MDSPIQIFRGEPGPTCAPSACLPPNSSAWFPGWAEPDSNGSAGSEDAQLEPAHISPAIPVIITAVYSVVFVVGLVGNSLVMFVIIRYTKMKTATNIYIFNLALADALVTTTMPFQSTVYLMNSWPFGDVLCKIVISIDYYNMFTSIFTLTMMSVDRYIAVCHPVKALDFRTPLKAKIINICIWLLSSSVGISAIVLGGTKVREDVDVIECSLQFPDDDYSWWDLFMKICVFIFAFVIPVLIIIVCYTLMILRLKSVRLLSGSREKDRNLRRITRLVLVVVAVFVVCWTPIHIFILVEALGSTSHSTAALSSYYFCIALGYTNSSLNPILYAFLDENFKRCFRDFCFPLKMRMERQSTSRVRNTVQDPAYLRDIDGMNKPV

Molecule	IC50 [1]	IC50 (Endothelin-1 receptor)	IC50 [2]	Ki [2]	IC50 [3]	IC50 (Neutrophil elastase)	IC50 ([2]; read-out: IC50) [nM]	Ki ([2]; read-out: Ki) [nM]	IC50 (Glucocorticoid receptor)	Ki [1]	Ki (Endothelin-1 receptor)	Ki (Neutrophil elastase)	Ki (Glucocorticoid receptor)	IC50 (Endothelin-1 receptor; read-out: IC50) [nM]	Ki (Endothelin-1 receptor; read-out: Ki) [nM]
CC(C(=O)O)c1cccc(Oc2ccccc2)c1 (configuration not stated) [FENOPROFEN]	Not Active	Not Active	Not Active	Not Active	Not Active	Not Active									
CC(=O)[C@@]1(O)CC[C@H]2[C@@H]3CCC4=CC(=O)CC[C@]4(C)[C@H]3CC[C@@]21C [HYDROXYPROGESTERONE]	Not Active	Not Active	Not Active	Not Active	Not Active	Not Active									
C#CC1(O)CC[C@H]2[C@@H]3CCC4=CC(=O)CC[C@@H]4[C@H]3CC[C@@]21CC (some centres not stated) [NORGESTREL]	Not Active	Not Active			Not Active	Not Active	2360	1920							
C[n+]1ccc(-c2cc[n+](C)cc2)cc1.[Cl-].[Cl-] [PARAQUAT DICHLORIDE]	Not Active	Not Active	Not Active	Not Active		Not Active			Not Active						
CC(C)NCC(O)COc1cccc2[nH]ccc12 (configuration not stated) [PINDOLOL]		Not Active	Not Active	Not Active	Not Active	Not Active			Not Active						
C[C@]12C=CC(=O)C=C1CC[C@@H]1[C@@H]2[C@@H](O)C[C@@]2(C)[C@H]1CC[C@]2(O)C(=O)CO [PREDNISOLONE]	Not Active	Not Active	Not Active	Not Active	Not Active	Not Active									
CC(=O)[C@H]1[C@H](C#N)C[C@H]2[C@@H]3CC=C4C[C@@H](O)CC[C@]4(C)[C@H]3CC[C@@]21C [PREGNENOLONE CARBONITRILE]	Not Active	Not Active	Not Active	Not Active	Not Active	Not Active									
CCCNCC(O)COc1ccccc1C(=O)CCc1ccccc1 (configuration not stated) [PROPAFENONE]		Not Active	Not Active	Not Active	Not Active	Not Active									
CC(C)c1cccc(C(C)C)c1O [PROPOFOL]	Not Active	Not Active	Not Active	Not Active		Not Active									
C[C@@H]1O[C@@H](O[C@@H]2C=C3CC[C@@H]4[C@H](CC[C@]5(C)[C@@H](c6ccc(=O)oc6)CC[C@]45O)[C@@]3(C)CC2)[C@H](O)[C@H](O)[C@H]1O [PROSCILLARIDIN]	Not Active	Not Active	Not Active	Not Active		Not Active			Not Active						
AURANOFIN	Not Active	Not Active	Not Active	Not Active		Not Active				Not Active	Not Active	Not Active	599 nM		
GADOPENTETATE DIMEGLUMINE	Not Active	Not Active	Not Active	Not Active		Not Active			Not Active	Not Active	Not Active	Not Active	Not Active		
GENTAMICIN	Not Active	Not Active	Not Active	Not Active		Not Active			Not Active	Not Active	Not Active	Not Active	Not Active		
GRAMICIDIN	Not Active		Not Active	Not Active		Not Active			Not Active	Not Active		Not Active	Not Active	2980	1840
NYSTATIN	Not Active	Not Active	Not Active	Not Active		Not Active			Not Active	Not Active	Not Active	Not Active	Not Active		
